Test results as given in US8354545B2, “3,4-substituted pyrrolidine beta-secretase inhibitors for the treatment of alzheimer's disease” (Merck, Sharp & Dohme, Corp., priority 2007, dated 2013).

biological target: T1, BACE 1 (Homo sapiens, UniProt P56817); experiment: ECL Assay: homogeneous end point electrochemiluminescence assay with biotinylated BACE substrate; format: biochemical; details: soluble human enzyme, pH 6.5
T1 construct: soluble (transmembrane domain and cytoplasmic extension excluded) human protein; made in house; host or cells: baculovirus expression system (insect cells implied)
T1 sequence (P56817 46-457 limits assumed): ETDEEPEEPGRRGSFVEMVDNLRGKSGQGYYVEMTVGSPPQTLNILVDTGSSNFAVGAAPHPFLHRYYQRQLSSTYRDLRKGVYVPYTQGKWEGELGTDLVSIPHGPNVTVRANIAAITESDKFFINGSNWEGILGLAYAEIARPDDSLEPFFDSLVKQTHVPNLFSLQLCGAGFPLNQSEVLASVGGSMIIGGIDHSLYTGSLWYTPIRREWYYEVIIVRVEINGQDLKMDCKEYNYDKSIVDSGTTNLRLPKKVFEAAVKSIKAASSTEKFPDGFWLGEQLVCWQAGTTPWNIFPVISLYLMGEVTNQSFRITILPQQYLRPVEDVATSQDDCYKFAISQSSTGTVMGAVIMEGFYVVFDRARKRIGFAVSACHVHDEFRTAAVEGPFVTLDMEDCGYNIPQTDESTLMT
Experimental: Enzyme inhibition is determined as follows.
ECL Assay: A homogeneous end point electrochemiluminescence (ECL) assay is performed using a biotinylated BACE substrate. […] A typical reaction contains approximately 0.6 nM enzyme, 0.25 μM of the substrate, and buffer (50 mM Pipes, pH 6.5, 0.1 mg/ml BSA, 0.2% CHAPS, 15 mM EDTA and 1 mM deferoxamine) in a total reaction volume of 100 μl. […] To measure the inhibitory potency for compounds, 10 concentrations of inhibitors are prepared starting from 200 μM with three fold series dilution. Solutions of the inhibitor in DMSO are included in the reaction mixture (final DMSO concentration is 10%). All experiments are conducted at […] using the standard reaction conditions described above. To determine the IC50 of the compound, a four parameter equation is used for curve fitting.

| IC50 [µM] | Compound |
| --- | --- |
| 3 | CS(=O)(=O)c1ccc(-c2ccccc2[C@@H]2CNC[C@H]2C(=O)N2CCC3(C=Cc4ccccc43)CC2)cc1 [Example 64] |
| 18 | CCOc1ccc(-c2ccccc2[C@@H]2CNC[C@H]2C(=O)N2CCOC[C@@H]2c2ccccc2)cc1 [Example 12] |
| 0.38 | CS(=O)(=O)c1ccc(-c2ccccc2[C@@H]2CNC[C@H]2C(=O)N2CCC3(C=Cc4ccccc43)CC2c2ccccc2)cc1 (stereo partly drawn) [Example 83, 1′-({(3S,4R)-4-(4′-(methylsulfonyl)biphenyl-2-yl]pyrrolidin-3-yl}carbonyl)-2′-phenylspiro-[indene-1,4′-piperidine]] |
| 67 | O=C([C@@H]1CNC[C@H]1c1ccccc1Br)N1CCCC1Cc1ccccc1 (stereo partly drawn) [Example 8, 2-benzyl-1-{[(3S,4R)-4-(2-bromophenyl)pyrrolidin-3-yl]carbonyl}pyrrolidine] |
| 1.8 | O=C([C@@H]1CNC[C@H]1c1ccccc1Br)N1CCC2(C=Cc3ccccc32)CC1c1ccccc1 (stereo partly drawn) [Example 79, 1′-{[(3S,4R)-4-(2-bromophenyl)pyrrolidin-3-yl]carbonyl}-2′-phenylspiro[indene-1,4′-piperidine]] |
| 3.5 | CS(=O)(=O)c1ccc(-c2ccccc2[C@@H]2CNC[C@H]2C(=O)N2CCC(c3ccccc3)CC2c2ccccc2)cc1 (stereo partly drawn) [Example 76, 1-({(3S,4R)-4-[4′-(methylsulfonyl)biphenyl-2-yl]pyrrolidin-3-yl}carbonyl)-2,4-diphenylpiperidine] |
| 19 | O=C([C@@H]1CNC[C@H]1c1ccccc1Br)N1CCC2(C=Cc3ccccc32)CC1 [Example 38, 1-{[(3S,4R)-4-(2-bromophenyl)pyrrolidin-3-yl]carbonyl}spiro[indene-1,4′-piperidine]] |
